Data published in paper PMC11874377, “Fungal-derived methyldeoxaphomins target Plasmodium falciparum segregation through the inhibition of PfActin1” (Proceedings of the National Academy of Sciences of the …, 2025).
“And” between values parts separate entries of the source, which are not always exact repeats. Identical values can stand only once. Like-named read-outs stand apart in the source and are kept apart here.

What was measured:
[1] = system: P. falciparum multidrug resistant line Dd2; test: SYBR Green I-based antiplasmodial assay, asexual blood stage, Dd2; assay type: cell-based, Plasmodium falciparum
Method: (§1) The antiplasmodial activity of these analogs was assessed in P. falciparum asexual blood stage using a SYBR Green I-based assay. Compounds were tested in both the multidrug resistant line Dd2, and the chloroquine-sensitive line 3D7, to probe any potential for preexisting resistance. […] These methyldeoxaphomin analogs were also cross-screened for cytotoxicity in the human cell line HepG2 to determine their selectivity for the Plasmodium parasite. […] This effect was maintained with analog NPDG-F where both R1 and R2 were substituted with OH groups. […] In addition, the hydroxyl group at carbon 7 seems to be critical for function as a drastic loss of potency was found in NPDG-D as compared to B and C. […]
(§2) Plasmodium blood stage culture
(§3) Parasite culture in the Chakrabarti lab was maintained following a modified Trager and Jensen protocol (Trager & Jensen, 1976) as previously described (Lee et al., 2021) with RPMI 1640 with 25 mM HEPES pH 7.4, 26 mM NaHCO3, 15 mg/L hypoxanthine, 0.5% Albumax II, 25 mg/L gentamycin, and 2% dextrose. Parasites were grown with human A+ erythrocytes obtained from Florida OneBlood. Cultures were kept in an incubator with 5% […]
(§4) Antiplasmodial activity screening
(§5) SYBR Green I-based fluorescence assay was performed as previously described (Lee et al., 2021) following protocols by Smilkstein et. al. (Smilkstein et al., 2004). Asynchronous Dd2 parasites were added to serially diluted compounds and incubated for 72 h at 5% CO2, 95% air at 37°C. Plates were then frozen at -80°C, thawed, and incubated for one hour with 1x SYBR Green I in a lysis buffer (20 mM Tris-HCL, 0.08% saponin, 5 mM EDTA, and 0.8% Triton X-100). Fluorescence was then read on a Synergy Neo2 multimode reader (BioTek Winsooki, VT). […]

[2] = system: Dd2; test: Rate of killing assay by flow cytometry; assay type: cell-based, Plasmodium falciparum; details: 10 × EC50 for 12, 24, or 48 h
Method: After a 24 h lag phase, only 10^0.64 parasites are killed within the first replication cycle (48 h). […] We also examined the in vitro killing rate in Dd2 through flow cytometric analysis.
Following the previously described protocol (Collins et al., 2021), compound or vehicle control was added to Dd2 culture in the majority ring stage and incubated for either 12, 24, or 48 h prior to compound removal. Samples were then taken at the time of compound removal, and every 24 h for 6 days for flow analysis with SYBR Green I and Mitotracker Deep red FM. Analysis was performed in Flowjo version 10 with gating using DHA, vehicle, no mitotracker, no staining, and uninfected RBC controls. Cells designated as SYBR positive and mitotracker positive were gated as “viable parasites” and graphed using Graphpad Prism version 10. […]

[3] = system: P. falciparum chloroquine-sensitive line 3D7; test: SYBR Green I-based antiplasmodial assay, asexual blood stage, 3D7; assay type: cell-based, Plasmodium falciparum
Method: as §1, §2, §3, §4, §5

[4] = system: P. berghei liver stage in HepG2 cells; test: High content imaging liver stage screening; assay type: cell-based, Plasmodium berghei
Method: Given these findings, we sought to observe the effects of NPDG-F on hepatic merozoites to see whether they were similarly impacted. To this end, HepG2 cells were infected with P. berghei sporozoites expressing luciferase and seeded onto a microtiter plate with NPDG-F at 2 HPI. At 72 HPI, a high content imaging (HCI) readout of treated parasites was performed to observe the impact on parasite maturation and merozoite formation via the expression of liver stage maturation markers MSP1 and AMA1. […] Infected monolayers treated with 1.1 µM of methyldeoxaphomin NPDG-F from 2-55 HPI were immunolabeled to examine the localization of MSP1 and AMA1 relative to parasite DNA during the period of merozoite formation (Fig. 4G). […]
Parasite reduction ratio adapted from protocol by Sanz et al (Sanz et al., 2012). […] After 3 weeks, growth was determined via SYBR Green I staining. The PRR was calculated and graphed using Graphpad Prism version […]
To examine the impact of methyldeoxaphomin NDPG F on the Plasmodium liver stage, HepG2 cells were infected with a luciferase-expressing strain of P. berghei. […] At 48 HPI, luciferase expression was measured as described(Van Voorhis et al., 2016) and parasite growth was quantified. After 72 HPI, High content imaging was performed to observe the relative expression of MSP1 and AMA1, the size and quantity of exoerythrocytic form parasites, and the HepG2 area occupied. […]

C=C1C(C)C2C(Cc3ccccc3)NC(=O)C23C(=O)C=CC(O)C(O)C(C)CC(C)CC=CC3C1O (stereo not shown) [Methyldeoxaphomin NPDG-F]
EC50 ([1]; Plasmodium falciparum, DD2, 72 h, read-out: Dd2 EC50, means from triplicate experiments ± SEM, 72 h): 550 nM | EC50 ([1]; Plasmodium falciparum, DD2, read-out: Dd2: Average EC50, average ± SEM of three replicates): 550 ± 40 nM | EC50 ([1]; Plasmodium falciparum, DD2, read-out: Dd2: EC50, individual replicates): 500 nM | EC50 ([1]; Plasmodium falciparum, DD2, read-out: EC50 in Dd2, abstract): 550 nM | EC50 ([1]; read-out: Dd2: EC50, individual replicates): 580 nM | in vitro killing rate phenotype [2]: delayed inhibition phenotype and a cytocidal killing profile | EC50 ([3]; Plasmodium falciparum, 3D7, abstract, read-out: EC50 in 3D7): 290 nM | EC50 ([3]; Plasmodium falciparum, 3D7, average ± SEM of three replicates, read-out: 3D7: Average EC50): 290 ± 30 nM | EC50 ([3]; Plasmodium falciparum, 3D7, individual replicates, read-out: 3D7: EC50): 230 nM | EC50 ([3]; Plasmodium falciparum, 3D7, means from triplicate experiments ± SEM, read-out: 3D7 EC50): 290 ± 30 nM | EC50 ([3]; individual replicates, read-out: 3D7: EC50): 310 nM and 330 nM | effect on liver-stage parasite development ([4]; 1.1 µM from 2-55 HPI): developmental failure during schizogony | MSP1 positive exoerythrocytic form (EEF) parasites remaining in the monolayer ([4]; 72 HPI, added at 2 HPI): sharp increase
